# Entries after “also recorded” stand apart in the source; their conditions may differ.
# How the values were obtained:
# [1] = system: panel of receptors, channels and transporters; parameters: method as in https://www.thesgc.org/chemical-probes/BAZ2-ICR; details: ref https://www.thesgc.org/chemical-probes/BAZ2-ICR; cited from earlier work
# [2] = system: 22Rv1 spheroids; assay: Spheroid growth (3D), 22Rv1; format: cell-based
# Description: Cell cultures, proliferation assay and spheroid gro wth
# PC3 and 22Rv1 cells were cultured in RPMI 1640 medium containing 10% FBS, 1% penicillin-streptomycin and 2 m M L-glutamine. All cells were regularly tested for mycoplasma contamination. […]
# Spheroids were obtained by plating PC3 and 22Rv1 cells in low -adhesion round bottom 96 -well plates. For 22Rv1, 2500 cells/well were seeded in 200 µl RPMI 1640; for PC3, 250 cells/well were seeded in 200 µl RPMI 1640 supplemented with 1.5% Matrigel. After seeding, the cells were centrifuged for 10 min at 1200 x g at 4°C. Spheroids were given 48 hours to form after seeding before adding the treatment or the carrier (0.1% DMSO). Medium supplemented with treatment/carrier was changed every 48 hours, for a total of 32 days for 22Rv1 and 16 days for PC3. Each spheroid was imaged in brightfield every day or every other day (after day 20), using a Leica DM IL microscope […]
# equipped with a Leica DFC450C digital camera. The area of each spheroid was measured using ImageJ and the average area for each condition was calculated. The growth rate was analysed using the segmental linear regression algorithm of GraphPad Prism. The appropriateness of the model was evaluated by considering the R square values and the Replicates test (Suppl. Table 6). […]
# [3] = system: heterogeneous PCa cell population; parameters: method as in Peña‐Hernández et al., [2021]; details: ref Peña‐Hernández et al., [2021]; cited from earlier work
# [4] = system: TNBC cells; parameters: method as in Bevill et al., [2019]; details: single agent; ref Bevill et al., [2019]; cited from earlier work
# [5] = system: PCa cells; assay: RT-qPCR of genes affected by BAZ2A genetic ablation; format: cell-based; details: 25 μM, 6 days, PC3 and 22Rv1
# Description: equipped with a Leica DFC450C digital camera. The area of each spheroid was measured using ImageJ and the average area for each condition was calculated. The growth rate was analysed using the segmental linear regression algorithm of GraphPad Prism. The appropriateness of the model was evaluated by considering the R square values and the Replicates test (Suppl. Table 6).
# Cells were counted and plated in 6 well (for RNA extraction) or 96 well (for growth curve) at a […]
# and 4.5x10^3 cells/well for 22Rv1) and let attach overnight at 37°C, 5% CO2. […] The gene expression was analyzed after 6 days from the cells seeded in the 6 well, while the viability was analyzed in the same way as for the cells treated with the […]
# Cells were previously counted and plated in 6 well at a fixed amount (60.000 cells/well for PC3; 135.000 cells/well for 22Rv1). The RNA was extracted using the phenol-chloroform method and its concentration was measured by Nano spectrophotometer. […]
# Total protein content was extracted from cells transfected with siRNA B AZ2A or siRNA RLU C (negative control). […] Cells were lysed using RIPA buffer and protein concentration was determined by Bradford Reagent (Sigma-Aldrich), according to the manufacturer’s instructions. […]
# [6] = system: PCa cancer stem cells; parameters: method as in Peña‐Hernández et al., [2021]; details: ref Peña‐Hernández et al., [2021]; cited from earlier work
smiles,measurement,setting,value
Cn1cc(CCn2cnc(-c3cnn(C)c3)c2-c2ccc(C#N)cc2)cn1 [BAZ2‐ICR],"profile on panel of receptors, channels and transporters",[1],clean
same,effect on growth of 22Rv1 spheroids,"[2]; 3D setting, GSK2801 25 μM, BAZ2‐ICR 25 μM, BI9564 20 μM",similarly affect the growth of 22Rv1 cells; also recorded: interestingly impacting those deriving from 22Rv1 cells
same,slope2 (segmental linear regression of spheroid growth),"[2]; 22Rv1 spheroids, 25 µM, after X0 = day 9",10618
same,slope1 (segmental linear regression of spheroid growth),"[2]; 22Rv1 spheroids, 25 µM, before X0 = day 9",17642
same,proliferation of heterogeneous PCa cell population,[3],does not affect the proliferation
same,effect on TNBC cells,[4],did not affect TNBC cells
same,transcription of a set of genes affected by BAZ2A genetic ablation,[5],did not comparably alter the transcription
same,efficacy on PCa cancer stem cells,[6],effective on PCa cancer stem cells

# Source: article PMC10464297, “Reevaluation of bromodomain ligands targeting BAZ2A” (Protein Science : A Publication of the Protein Society, 2023)
